Source: ChEMBL document CHEMBL1949665, “Pyrazolo[1,5-a]pyridines as p38 kinase inhibitors” (Org Lett, 2005)

experiment: Inhibition of p38 kinase

Row | IC50 | Compound
1 | 630 nM | CN(C)CCCNc1nccc(-c2c(-c3ccc(F)cc3)nn3cc(C(F)(F)F)ccc23)n1
2 | 1000 nM | CN(C)c1cc(-c2c(-c3ccc(F)cc3)nn3ccccc23)ccn1
3 | 160 nM | Fc1ccc(-c2nn3ccccc3c2-c2ccnc(NCc3ccccc3)c2)cc1
4 | 160 nM | Fc1ccc(-c2nn3ccccc3c2-c2ccnc(Nc3ccccc3)c2)cc1
5 | 160 nM | CCCCNc1cc(-c2c(-c3ccc(F)cc3)nn3cccc(F)c23)ccn1
6 | 100 nM | COc1cccc2c(-c3ccncc3)c(-c3ccc(F)cc3)nn12
7 | 100 nM | Nc1cc(-c2c(-c3ccc(F)cc3)nn3cc(C(F)(F)F)ccc23)ccn1
8 | 80 nM | CC(C)Nc1cc(-c2c(-c3ccc(F)cc3)nn3cc(C(N)=O)ccc23)ccn1
9 | 60 nM | CCCCNc1cc(-c2c(-c3ccc(F)cc3)nn3c(OC)cccc23)ccn1
10 | 50 nM | N#Cc1ccc2c(-c3ccnc(NC4CC4)c3)c(-c3ccc(F)cc3)nn2c1
11 | 1250 nM | CN(C)CCCNc1nccc(-c2c(-c3ccc(C(F)(F)F)cc3)nn3cc(C(F)(F)F)ccc23)n1
12 | 630 nM | Fc1ccc(-c2nn3ccccc3c2-c2ccncn2)cc1
13 | 500 nM | Cc1cccc2c(-c3ccncn3)c(-c3ccc(F)cc3)nn12
14 | 400 nM | CN1CCN(CCCNc2nccc(-c3c(-c4ccc(C(F)(F)F)cc4)nn4cc(C(F)(F)F)ccc34)n2)CC1
15 | 200 nM | OCCCNc1nccc(-c2c(-c3cccc(C(F)(F)F)c3)nn3cc(C(F)(F)F)ccc23)n1
16 | 160 nM | CSc1cccc2c(-c3ccncn3)c(-c3ccc(F)cc3)nn12
17 | 130 nM | CN1CCN(CCCNc2nccc(-c3c(-c4ccc(F)cc4)nn4cc(C(F)(F)F)ccc34)n2)CC1
18 | 100 nM | Nc1nccc(-c2c(-c3ccc(F)cc3)nn3ccccc23)n1
19 | 100 nM | CN(C)CCCNc1nccc(-c2c(-c3cccc(Cl)c3)nn3cc(C(F)(F)F)ccc23)n1
20 | 60 nM | CN(C)C(=O)c1ccc2c(-c3ccnc(NC4CC4)n3)c(-c3cccc(C(F)(F)F)c3)nn2c1
21 | 60 nM | CN(C)C(=O)c1ccc2c(-c3ccnc(NC4CC4)n3)c(-c3ccc(F)cc3)nn2c1
22 | 60 nM | OCCCNc1nccc(-c2c(-c3ccc(F)cc3)nn3cc(C(F)(F)F)ccc23)n1
23 | 40 nM | OCCCNc1nccc(-c2c(-c3ccc(F)cc3)nn3cc(Cl)ccc23)n1
24 | 40 nM | CCCCNc1nccc(-c2c(-c3ccc(F)cc3)nn3c(OCCF)cccc23)n1
25 | 40 nM | CN1CCN(CCCNc2nccc(-c3c(-c4ccc(F)cc4)nn4cc(C(N)=O)ccc34)n2)CC1
26 | 40 nM | CC(C)Nc1nccc(-c2c(-c3ccc(F)cc3)nn3cc(C(F)(F)F)ccc23)n1
27 | 20 nM | NC(=O)c1ccc2c(-c3ccnc(NC4CC4)n3)c(-c3ccc(F)cc3)nn2c1
28 | 30 nM | N#Cc1ccc2c(-c3ccnc(NC4CC4)n3)c(-c3ccc(F)cc3)nn2c1 [GW561436X]
29 | 200 nM | Nc1nccc(-c2c(-c3ccc(F)cc3)nn3cc(C(F)(F)F)ccc23)n1 [GW568326X]
30 | 10 nM | NC(=O)c1ccc2c(-c3ccnc(NCCCO)n3)c(-c3ccc(F)cc3)nn2c1 [GW581744X]
